Patent US4268678A, “4-(Arylaliphatic)isoxazoles” (Sterling Drug Inc., priority 1979, dated 1981)
In brackets after ≈: the same amount, converted by molar mass.

Test system: herpes simplex virus type 2
Assay: in vitro antiviral testing against herpes simplex virus type 2 (MIC by standard serial dilution)
Assay type: cell-based
Details: Human alphaherpesvirus 2, herpes simplex virus type 2 (herpes 2), read-out: minimal inhibitory concentration (MIC)
Experimental: They are useful in combatting viruses present on inanimate surfaces as well as viral infections in animal organisms. […] The MIC values were determined by standard serial dilution procedures.

SMILES	MIC
CCc1noc(CC)c1CCCCCCOc1ccc(OC)cc1Cl [Example 1, 4-[6-(2-Chloro-4-methoxyphenoxy)hexyl]-3,5-diethylisoxazole]	6 µg/mL (≈ 16.4 µM)
CCc1noc(CC)c1Cc1ccc(C)cc1 [Example 2, 3,5-Diethyl-4-[(4-methylphenyl)methyl]isoxazole]	1.5 µg/mL (≈ 6.54 µM)
CCc1noc(CC)c1Cc1ccc(OC)cc1 [Example 3, 3,5-Diethyl-4-[(4-methoxyphenyl)methyl]isoxazole]	25 µg/mL (≈ 102 µM)
CCc1noc(CC)c1Cc1ccc(OC)cc1Cl [Example 4, 4-[(2-Chloro-4-methoxyphenyl)methyl]-3,5-diethylisoxazole]	12 µg/mL (≈ 42.9 µM)
CCc1noc(CC)c1CCCCCCOc1ccc(OC)cc1[N+](=O)[O-] [Example 5, 3,5-Diethyl-4-[6-(4-methoxy-2-nitrophenoxy)hexyl]isoxazole]	3 µg/mL (≈ 7.97 µM)
CCc1noc(CC)c1CCCCCCOc1ccc(Br)cc1 [Example 6, 4-[6-(4-Bromophenoxy)hexyl]-3,5-diethylisoxazole]	12 µg/mL (≈ 31.6 µM)
CCc1noc(CC)c1CCCCOc1ccc(OC)cc1Cl [Example 7, 4-[4-(2-Chloro-4-methoxyphenoxy)butyl]-3,5-diethylisoxazole]	6 µg/mL (≈ 17.8 µM)
CCc1noc(CC)c1CCCCCCCOc1ccc(OC)cc1Cl [Example 8, 4-[7-(2-Chloro-4-methoxyphenoxy)heptyl]-3,5-diethylisoxazole]	> 25 µg/mL
